# Earlier results in patent publication US10273202B2, “Nitroxyl progenitor compounds and methods of use” (The Johns Hopkins University, priority 2004, dated 2019).
# Read-outs that look alike come from different tables or passages of the source.
# Tested on: dog with congestive heart failure
# Details: CHF dogs
# [1] = 5-10 μg/kg/min for 15 min i.v., n=8
structure (smiles),measurement,setting,value
"[Na+].[Na+].[O-][N+]([O-])=NO [AS, Angeli's salt]","Ees, % from baseline",[1],+46 ± 8%
same,"LVEDD, % from baseline",[1],−3.8 ± 1%
same,"LVEDP, % from baseline",[1],−50 ± 12%
same,"LVESD, % from baseline",[1],−3.9 ± 1%
same,"LVESP, % from baseline",[1],−13 ± 2%
same,"RT, % from baseline",[1],−12 ± 5%
same,"Tau, % from baseline",[1],−18 ± 2%
same,"Ees, % from baseline","5-10 μg/kg/min, + volume",+37 ± 5%
same,"LVEDD, % from baseline","5-10 μg/kg/min, + volume",−1.7 ± 1%
same,"LVEDP, % from baseline","5-10 μg/kg/min, + volume",−34 ± 19%
same,"LVESD, % from baseline","5-10 μg/kg/min, + volume",−3.0 ± 0.5%
same,"LVESP, % from baseline","5-10 μg/kg/min, + volume",−9.9 ± 2%
same,"RT, % from baseline","5-10 μg/kg/min, + volume",−14 ± 4%
same,"Tau, % from baseline","5-10 μg/kg/min, + volume",−15 ± 3%
